Test results from PubChem BioAssay (NCI).
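Protocol summary: plate cells (96-well), add compound at 5 concentrations, incubate 48 h, interpolate endpoints linearly. Definition used: TGI = concentration required for complete inhibition of growth.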

Key:
Assay in all cases: NCI-60 cell line screen, 48 h
[1] = test system: HOP-92 NSCLC
[2] = test system: NCI-H23 lung
[3] = test system: HL-60(TB) leukemia
[4] = test system: HCT-15 colon
[5] = test system: OVCAR-4 ovarian
[6] = test system: MDA-MB-231 breast
[7] = test system: SK-OV-3 ovarian
[8] = test system: SK-MEL-28 melanoma
[9] = test system: SR leukemia
[10] = test system: BT-549 breast
[11] = test system: SN12C renal
[12] = test system: CCRF-CEM leukemia
[13] = test system: CAKI-1 renal
[14] = test system: KM12 colon
[15] = test system: TK-10 renal
[16] = test system: K-562 leukemia
[17] = test system: LOX IMVI melanoma
[18] = test system: HCT-116 colon
[19] = test system: HCC-2998 colon
[20] = test system: M14 melanoma

| SMILES | TGI [1] [µM] | TGI [2] [µM] | TGI [3] [µM] | TGI [4] [µM] | TGI [5] [µM] | TGI [6] [µM] | TGI [7] [µM] | TGI [8] [µM] | TGI [9] [µM] | TGI [10] [µM] | TGI [11] [µM] | TGI [12] [µM] | TGI [13] [µM] | TGI [14] [µM] | TGI [15] [µM] | TGI [16] [µM] | TGI [17] [µM] | TGI [18] [µM] | TGI [19] [µM] | TGI [20] [µM] |
| --- | --- | --- | --- | --- | --- | --- | --- | --- | --- | --- | --- | --- | --- | --- | --- | --- | --- | --- | --- | --- |
| COc1cc(C2SC(N)=Nc3c2c(C)nn3C(=O)c2ccccc2O)ccc1O (configuration not stated) | > 10 | > 10 | > 4.56 | > 10 | > 6.37 | > 10 | > 10 | > 10 | > 2.73 | > 10 | > 10 | > 10 | > 10 | > 10 | > 10 | > 3.75 | > 10 | > 10 | > 10 | > 10 |
| O=C(NNC(c1ccccc1)C(F)(F)F)c1ccncc1 (configuration not stated) | > 100 | > 100 | > 100 | > 100 | > 100 | > 100 | – | > 100 | > 100 | > 100 | > 100 | > 100 | > 100 | > 100 | > 100 | > 100 | > 100 | > 100 | > 100 | > 100 |
| Cc1ccc2c(n1)C(=O)C=CC2=O | 13.7 | 30.6 | > 22.5 | 26.3 | 12.8 | 19.5 | 49.5 | 15.3 | > 100 | 31.5 | 29.8 | > 22.4 | 4.54 | 46.2 | 6.21 | 18 | 12.6 | 4.12 | 33.5 | 32.3 |
| NC(=O)NC(=O)c1cccc(CNc2ccc(C(=O)N[C@@H](CCC(=O)O)C(=O)O)cc2)n1 | > 100 | > 100 | > 100 | > 100 | > 100 | > 100 | > 100 | > 100 | > 100 | > 100 | > 100 | – | > 100 | > 100 | > 100 | > 100 | > 100 | > 100 | > 100 | > 100 |
| COc1cc(/C=C2/SC(c3ccccc3)N(c3ccccc3)C2=O)cc(OC)c1OC (configuration not stated) | > 100 | > 100 | > 100 | > 100 | > 100 | > 100 | > 100 | > 100 | > 100 | > 100 | > 100 | 42.2 | > 100 | > 100 | > 100 | > 100 | > 100 | > 100 | > 100 | > 100 |
| COc1ccc2c(c1)/C(=C\c1c(C)nc3sc(C)cn13)C(=O)N2 | > 28.5 | > 70.7 | 3.63 | 74.6 | > 100 | 73.6 | 23 | > 100 | > 75.6 | 45.8 | > 100 | 2.32 | > 100 | 62.4 | > 100 | > 100 | 61.2 | 25 | 3.85 | > 100 |
| O=C(Nc1c(C(F)(F)F)cc(-c2ccccc2)[nH]c1=O)N1CCOCC1 | > 100 | > 100 | 79.5 | > 100 | > 100 | > 100 | > 100 | > 100 | > 100 | > 100 | > 100 | > 100 | > 100 | > 100 | > 100 | > 100 | > 100 | > 100 | > 100 | > 100 |
| Cc1ccc2c(c1)C(=O)N1CCC[C@H]1C=N2 | > 86.9 | 39.7 | – | > 76.4 | 53.8 | > 66.5 | > 100 | 52 | > 92.1 | 84.7 | > 100 | 22.6 | > 71.7 | 39.7 | 85.7 | > 100 | > 100 | > 100 | 45.6 | 47.8 |
| COc1cc(C)cc2c1c(=O)c1ccccc1n2C | 91.8 | > 100 | 83.3 | > 100 | > 100 | > 100 | > 100 | > 100 | 78.7 | > 100 | > 100 | 68.5 | > 100 | > 100 | > 100 | 39.4 | 53.6 | 76.3 | > 100 | > 100 |
| CC(C)OP(=O)(OC(C)C)/C(C#N)=C/c1ccco1 | > 100 | > 100 | > 100 | > 100 | > 100 | > 100 | > 100 | > 100 | > 100 | > 100 | > 100 | > 100 | > 100 | > 100 | > 100 | > 100 | > 100 | > 100 | > 100 | > 100 |
| Cc1nn(C(=O)c2ccncc2)c2c1C(c1ccccc1)SC(N)=N2 (configuration not stated) | > 10 | > 10 | > 10 | > 10 | > 10 | > 10 | > 10 | > 10 | > 10 | > 10 | > 10 | > 10 | > 10 | > 10 | > 10 | > 10 | > 10 | > 10 | > 10 | > 10 |
| C/C(=N\Nc1nc2ccccc2n1C)c1cnccn1 | 6.83 | > 100 | 0.058 | > 100 | > 100 | 71.9 | > 100 | – | > 100 | > 100 | > 100 | 6.17 | > 100 | > 33.2 | > 100 | > 100 | > 20 | – | > 100 | 6.53 |
| CC(C)(C)c1cc2c(O)c(c1)Cc1cc(C(C#N)(Cc3ccc4ccccc4c3)Cc3ccc4ccccc4c3)cc(c1O)Cc1cc(C(C)(C)C)cc(c1O)Cc1cc(C(C#N)(Cc3ccc4ccccc4c3)Cc3ccc4ccccc4c3)cc(c1O)C2 | > 100 | > 100 | > 100 | > 100 | > 100 | > 100 | > 100 | > 100 | > 100 | > 100 | > 100 | > 100 | > 100 | > 100 | > 100 | > 100 | > 100 | > 100 | > 100 | > 100 |
| CC=CCOc1cc(NC(=S)OC(C)C)ccc1Cl (mixture of isomers) | 24.9 | 35.1 | 55.7 | 33.7 | 32.4 | 51.5 | 45.8 | 33.7 | 44.6 | 38.6 | 29 | 64.3 | 22.8 | 33.4 | 29.2 | – | 35.8 | 33.6 | 30.3 | 63.3 |
| Cc1cc(-c2nc3ccccc3s2)ccc1N | > 100 | > 80.8 | > 90.3 | > 89.3 | > 84.1 | > 88.2 | > 100 | > 100 | > 89.8 | > 84.3 | > 77.9 | > 100 | > 82.4 | > 81.2 | > 100 | > 86 | > 78.5 | > 78.7 | > 93 | > 73.5 |
| Cc1ccc(C(=O)Nc2ccc(S(=O)(=O)O)c3cc(S(=O)(=O)O)cc(S(=O)(=O)O)c23)cc1NC(=S)Nc1cc(C(=O)Nc2ccc(S(=O)(=O)O)c3cc(S(=O)(=O)O)cc(S(=O)(=O)O)c23)ccc1C | – | > 75 | > 75 | > 75 | > 75 | > 75 | – | > 75 | > 75 | > 75 | > 75 | > 75 | > 75 | – | > 75 | > 75 | > 75 | > 75 | > 75 | > 75 |
| CCN(CC)CCCn1c(=O)c2ccccc2n2c3c(=O)n(C)c(=O)n(C)c3nc12 | 16.4 | 21.2 | 9.08 | 25.4 | 22.6 | 30.1 | 14.7 | 30.2 | 3.37 | 17.6 | 18.6 | 35 | 15.1 | 19.8 | 38.9 | 33.6 | 15.4 | 21.6 | 22 | 25.1 |
| CCN(CC)C(=S)SS(=O)(=O)c1ccc(Cl)cc1 | 50.4 | > 100 | – | > 100 | > 100 | > 100 | > 100 | 34.4 | 21.1 | > 100 | 48.2 | – | 43.5 | 24.4 | > 100 | 63.3 | 29.2 | > 100 | > 100 | 31 |
| CCN(CC)CCNC(=O)c1ccc(I)cc1 | > 100 | > 100 | – | > 100 | > 100 | > 100 | > 100 | > 100 | > 100 | > 100 | > 100 | > 100 | > 100 | > 100 | > 100 | > 100 | > 100 | > 100 | > 100 | > 100 |
| CCOP(=O)(C/C=C/Cn1nc(Br)c(=O)[nH]c1=O)OCC | > 100 | > 100 | > 100 | > 100 | > 100 | > 100 | – | > 100 | > 100 | > 100 | > 100 | > 100 | > 100 | > 100 | > 100 | > 100 | > 100 | > 100 | > 100 | > 100 |
| Cc1cc(N=Nc2c(O)ccc3ccccc23)ccc1N=Nc1cccc([N+](C)(C)C)c1 | > 100 | 52 | – | > 84.4 | > 100 | 55.3 | > 75.3 | 62.3 | > 100 | 15.7 | > 80 | > 34.3 | 62.9 | 17.3 | 49.5 | > 90.7 | > 40.3 | 75.5 | > 100 | 59.3 |
| O=C1N2CCc3c([nH]c4ccccc34)C23CC2CCCCC12S3 (configuration not stated) | > 100 | > 100 | > 100 | > 100 | > 100 | > 100 | > 100 | > 100 | > 100 | > 100 | > 100 | – | > 100 | > 100 | > 100 | > 100 | > 100 | > 100 | – | > 100 |
| O=C1NC(N2CCCCC2)=N/C1=C\c1cccs1 | > 100 | > 100 | > 100 | > 100 | > 100 | > 100 | > 100 | > 100 | > 100 | > 100 | > 100 | > 100 | > 100 | > 100 | > 100 | – | > 100 | > 100 | > 100 | > 100 |
| Cc1cccc(CC(Cc2c(C)cccc2C(=O)O)C(=O)O)c1 (configuration not stated) | – | > 100 | > 100 | > 100 | > 100 | > 100 | > 100 | > 100 | > 100 | > 100 | > 100 | > 100 | > 100 | > 100 | > 100 | > 100 | > 100 | > 100 | > 100 | > 100 |
